Experimental data: US20240245059A1 (priority 2021, published 2024)

Columns and labels:
Fusarium graminearum = type: in vivo; settings: 2 L/ha of 10% w/w solution; one application 2 days after inoculation; incidence of affected leaves vs untreated
Ca. Phytoplasma vitis = test: Open field testing on phytoplasma, ddPCR quantification of DNA and RNA in Pervinca rosea; type: in vivo; settings: 2 L/ha, endotherapy treatment, 48 hours after exposure, high values = reduced/no antibacterial activity; for % DNA: untreated 91; for % RNA: untreated 94
Experimental: Open Filed Testing on Phytoplasma—Antibacterial Activity on Ca. Phytoplasma vitis by Mixtures of Fatty Acids and Peptides
The activity on phytoplasma of three peptides (SEQ.ID.NO.: 1, 2 and 9), of crotonic and pelargonic acid and of the mixtures of these fatty acids with the aforementioned peptides were evaluated on Pervinca rosea suitably contaminated by Ca. Phytoplasma vitis.
The peptides of SEQ.ID.NO.: 1, 2 and 9 were dissolved in water at a concentration of 10% w/w. Aqueous solutions of crotonic and pelargonic acids were prepared at a concentration of 10% w/w. Aqueous solutions of peptides and solutions of fatty acids were mixed together, in order to obtain six different mixtures at a concentration of 10% w/w of peptide and acid.
The evaluation of the efficacy of the products used was evaluated with ddPCR (Droplet Digital PCR) technique for the quantification of the genetic material (DNA and RNA) after 48 hours from exposure to endotherapy treatment. High % DNA and RNA values are related to reduced/no antibacterial activity.

C/C=C/C(=O)O [Crotonic acid]
Efficacy (%) 1° check (Fusarium graminearum): 8%
Efficacy (%) 2° check (Fusarium graminearum): 7%
Efficacy (%) 3° check (Fusarium graminearum): 10%
% DNA (Ca. Phytoplasma vitis): 76%
% RNA (Ca. Phytoplasma vitis): 84%

CCCCCCCCC(=O)O [Pelargonic acid]
Efficacy (%) 1° check (Fusarium graminearum): 10%
Efficacy (%) 2° check (Fusarium graminearum): 8%
Efficacy (%) 3° check (Fusarium graminearum): 9%
% DNA (Ca. Phytoplasma vitis): 84%
% RNA (Ca. Phytoplasma vitis): 86%

Hs_AFP1: plant defensin antimicrobial peptide, SEQ.ID.NO: 1, per se known (DGVKLCDVPSGTWSGHCGSSSKCSQQCKDREHFAYGGACHYQFPSVKCFCKRQC; None)
Efficacy (%) 1° check (Fusarium graminearum): 35%
Efficacy (%) 2° check (Fusarium graminearum): 27.4%
Efficacy (%) 3° check (Fusarium graminearum): 26.5%
% DNA (Ca. Phytoplasma vitis): 75%
% RNA (Ca. Phytoplasma vitis): 78%

Ps_Def1: plant defensin antimicrobial peptide, SEQ.ID.NO: 9 (RMCKTPSGKFKGYCVNNTNCKNVCRTEGFPTGSCDFHVAGRKCYCYKPCP; None)
Efficacy (%) 1° check (Fusarium graminearum): 30%
Efficacy (%) 2° check (Fusarium graminearum): 27%
Efficacy (%) 3° check (Fusarium graminearum): 32%
% DNA (Ca. Phytoplasma vitis): 82%
% RNA (Ca. Phytoplasma vitis): 80%

Rs_AFP2: plant defensin antimicrobial peptide, SEQ.ID.NO: 2, per se known (QKLCQRPSGTWSGVCGNNNACKNQCIRLEKARHGSCNYVFPAHKCICYFPC; None)
Efficacy (%) 1° check (Fusarium graminearum): 38%
Efficacy (%) 2° check (Fusarium graminearum): 34%
Efficacy (%) 3° check (Fusarium graminearum): 25.4%
% DNA (Ca. Phytoplasma vitis): 81%
% RNA (Ca. Phytoplasma vitis): 80%
